In ChEMBL document CHEMBL4028801, “A multifactorial approach to hepatobiliary transporter assessment enables improved therapeutic compound development” (Toxicol Sci, 2013):

Columns and labels:
[1] = target: ATP-binding cassette sub-family C member 2 (Homo sapiens, UniProt Q92887); assay: Inhibition of human MRP2 overexpressed in Sf9 cell membrane vesicles assessed as uptake of [3H]-estradiol-17beta-D-glucuronide in presence of ATP and GSH measured after 20 mins by membrane vesicle transport assay
[2] = target: T1, ATP-binding cassette sub-family C member 4 (Homo sapiens, UniProt O15439); assay: Inhibition of human MRP4 overexpressed in Sf9 cell membrane vesicles assessed as uptake of [3H]-estradiol-17beta-D-glucuronide in presence of ATP and GSH measured after 20 mins by membrane vesicle transport assay; type: ADME, cell-based
T1 sequence (O15439 whole entry): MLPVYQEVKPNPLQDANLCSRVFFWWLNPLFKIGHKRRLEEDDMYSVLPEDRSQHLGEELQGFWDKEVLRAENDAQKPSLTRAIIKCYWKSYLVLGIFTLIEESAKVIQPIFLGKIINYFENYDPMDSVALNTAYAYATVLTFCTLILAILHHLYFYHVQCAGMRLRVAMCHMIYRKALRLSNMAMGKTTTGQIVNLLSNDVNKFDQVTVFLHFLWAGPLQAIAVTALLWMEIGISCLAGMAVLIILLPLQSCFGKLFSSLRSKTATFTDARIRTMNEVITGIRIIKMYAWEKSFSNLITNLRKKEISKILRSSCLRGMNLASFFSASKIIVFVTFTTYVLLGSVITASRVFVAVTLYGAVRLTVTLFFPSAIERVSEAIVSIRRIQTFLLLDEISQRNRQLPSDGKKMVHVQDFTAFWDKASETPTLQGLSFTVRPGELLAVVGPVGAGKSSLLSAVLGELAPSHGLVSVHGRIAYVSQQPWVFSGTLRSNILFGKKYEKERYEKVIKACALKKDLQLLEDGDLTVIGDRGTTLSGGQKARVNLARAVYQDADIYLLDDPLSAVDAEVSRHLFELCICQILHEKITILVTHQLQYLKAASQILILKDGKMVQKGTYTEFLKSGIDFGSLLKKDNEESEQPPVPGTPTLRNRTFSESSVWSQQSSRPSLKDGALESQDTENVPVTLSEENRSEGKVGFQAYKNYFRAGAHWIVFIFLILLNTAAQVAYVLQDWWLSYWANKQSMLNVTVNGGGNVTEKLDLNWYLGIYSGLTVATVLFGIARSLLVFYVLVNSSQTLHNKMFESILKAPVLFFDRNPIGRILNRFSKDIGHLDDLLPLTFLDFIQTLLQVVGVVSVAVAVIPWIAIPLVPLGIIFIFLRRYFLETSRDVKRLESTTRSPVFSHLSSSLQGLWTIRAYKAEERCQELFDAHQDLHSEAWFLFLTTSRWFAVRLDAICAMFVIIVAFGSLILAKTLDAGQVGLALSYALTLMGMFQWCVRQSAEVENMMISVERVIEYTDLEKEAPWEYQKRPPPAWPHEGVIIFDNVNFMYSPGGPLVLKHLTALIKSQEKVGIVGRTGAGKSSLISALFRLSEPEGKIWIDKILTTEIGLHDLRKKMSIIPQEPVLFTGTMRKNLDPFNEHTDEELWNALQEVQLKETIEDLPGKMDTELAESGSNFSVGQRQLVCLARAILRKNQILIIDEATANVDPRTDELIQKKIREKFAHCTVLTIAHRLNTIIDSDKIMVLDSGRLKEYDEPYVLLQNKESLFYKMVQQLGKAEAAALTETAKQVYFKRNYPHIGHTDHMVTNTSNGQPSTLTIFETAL

Homo sapiens = assay: Cardiotoxicity in human at 20 to 30 mg/day, po; type: toxicity
[3] = target: ATP-binding cassette sub-family C member 3 (Homo sapiens, UniProt O15438); assay: Inhibition of human MRP3 overexpressed in Sf9 insect cell membrane vesicles assessed as uptake of [3H]-estradiol-17beta-D-glucuronide in presence of ATP and GSH measured after 10 mins by membrane vesicle transport assay; type: ADME, cell-based
[4] = AUC in human at 10 mg, po after 24 hrs; type: ADME, organism-based; design: time < 24 hr, dose 10 mg, route oral; conditions: in vivo
[5] = AUC in human at 5 to 30 mg, po QD after 24 hrs; type: ADME, organism-based; conditions: in vivo
[6] = Drug concentration at steady state in human at 5 to 30 mg, po QD after 24 hrs; type: ADME, organism-based; conditions: in vivo, read-out: Css
[7] = Ratio of drug concentration at steady state in human at 0.2 mg, po QID after 6 hrs to IC50 for human MRP4 overexpressed in Sf9 insect cells; type: ADME, organism-based; conditions: in vivo
[8] = AUC in human at 0.2 mg, po QID after 6 hrs; type: ADME, organism-based; design: time < 6 hr, dose 0.2 mg, route oral; conditions: in vivo
Bile salt export pump = Bile salt export pump (Homo sapiens, UniProt O95342); assay: Inhibition of human BSEP overexpressed in Sf9 cell membrane vesicles assessed as uptake of [3H]-taurocholate in presence of ATP measured after 15 to 20 mins by membrane vesicle transport assay; type: ADME, cell-based
[9] = Ratio of drug concentration at steady state in human at 0.2 mg, po QID after 6 hrs to IC50 for human BSEP overexpressed in Sf9 insect cells; type: ADME, organism-based; conditions: in vivo
[10] = AUC in human at 50 mg, po QD after 24 hrs; type: ADME, organism-based; design: dose 50 mg, time < 24 hr, route oral; conditions: in vivo
[11] = Ratio of drug concentration at steady state in human at 50 mg, po QD after 24 hrs to IC50 for human BSEP overexpressed in Sf9 insect cells; type: ADME, organism-based; conditions: in vivo
[12] = Drug concentration at steady state in human at 50 mg, po QD after 24 hrs; type: ADME, organism-based; conditions: in vivo, read-out: Css
[13] = AUC in human at 15 to 60 mg, po QD after 24 hrs; type: ADME, organism-based; conditions: in vivo
[14] = Drug concentration at steady state in human at 15 to 60 mg, po QD after 24 hrs; type: ADME, organism-based; conditions: in vivo, read-out: Css
[15] = Ratio of drug concentration at steady state in human at 15 to 60 mg, po QD after 24 hrs to IC50 for human BSEP overexpressed in Sf9 insect cells; type: ADME, organism-based; conditions: in vivo
[16] = AUC in human at 2.5 to 10 mg, po QD after 24 hrs; type: ADME, organism-based; conditions: in vivo
[17] = Ratio of drug concentration at steady state in human at 2.5 to 10 mg, po QD after 24 hrs to IC50 for human BSEP overexpressed in Sf9 insect cells; type: ADME, organism-based; conditions: in vivo
[18] = Drug concentration at steady state in human at 2.5 to 10 mg, po QD after 24 hrs; type: ADME, organism-based; conditions: in vivo, read-out: Css
[19] = Ratio of drug concentration at steady state in human at 0.5 mg, po QD after 24 hrs to IC50 for human BSEP overexpressed in Sf9 insect cells; type: ADME, organism-based; conditions: in vivo
[20] = AUC in human at 0.5 mg, po QD after 24 hrs; type: ADME, organism-based; design: time < 24 hr, dose 0.5 mg, route oral; conditions: in vivo
[21] = Drug concentration at steady state in human at 0.5 mg, po QD after 24 hrs; type: ADME, organism-based; conditions: in vivo, read-out: Css
[22] = Ratio of drug concentration at steady state in human at 0.1 to 1 mg, po QD after 24 hrs to IC50 for human BSEP overexpressed in Sf9 insect cells; type: ADME, organism-based; conditions: in vivo
[23] = AUC in human at 0.1 to 1 mg, po QD after 24 hrs; type: ADME, organism-based; conditions: in vivo
[24] = Ratio of drug concentration at steady state in human at 0.1 to 1 mg, po QD after 24 hrs to IC50 for human MRP2 overexpressed in Sf9 insect cells; type: ADME, organism-based; conditions: in vivo
[25] = Drug concentration at steady state in human at 0.1 to 1 mg, po QD after 24 hrs; type: ADME, organism-based; conditions: in vivo, read-out: Css

Bile salt export pump, sequence (O95342 whole entry): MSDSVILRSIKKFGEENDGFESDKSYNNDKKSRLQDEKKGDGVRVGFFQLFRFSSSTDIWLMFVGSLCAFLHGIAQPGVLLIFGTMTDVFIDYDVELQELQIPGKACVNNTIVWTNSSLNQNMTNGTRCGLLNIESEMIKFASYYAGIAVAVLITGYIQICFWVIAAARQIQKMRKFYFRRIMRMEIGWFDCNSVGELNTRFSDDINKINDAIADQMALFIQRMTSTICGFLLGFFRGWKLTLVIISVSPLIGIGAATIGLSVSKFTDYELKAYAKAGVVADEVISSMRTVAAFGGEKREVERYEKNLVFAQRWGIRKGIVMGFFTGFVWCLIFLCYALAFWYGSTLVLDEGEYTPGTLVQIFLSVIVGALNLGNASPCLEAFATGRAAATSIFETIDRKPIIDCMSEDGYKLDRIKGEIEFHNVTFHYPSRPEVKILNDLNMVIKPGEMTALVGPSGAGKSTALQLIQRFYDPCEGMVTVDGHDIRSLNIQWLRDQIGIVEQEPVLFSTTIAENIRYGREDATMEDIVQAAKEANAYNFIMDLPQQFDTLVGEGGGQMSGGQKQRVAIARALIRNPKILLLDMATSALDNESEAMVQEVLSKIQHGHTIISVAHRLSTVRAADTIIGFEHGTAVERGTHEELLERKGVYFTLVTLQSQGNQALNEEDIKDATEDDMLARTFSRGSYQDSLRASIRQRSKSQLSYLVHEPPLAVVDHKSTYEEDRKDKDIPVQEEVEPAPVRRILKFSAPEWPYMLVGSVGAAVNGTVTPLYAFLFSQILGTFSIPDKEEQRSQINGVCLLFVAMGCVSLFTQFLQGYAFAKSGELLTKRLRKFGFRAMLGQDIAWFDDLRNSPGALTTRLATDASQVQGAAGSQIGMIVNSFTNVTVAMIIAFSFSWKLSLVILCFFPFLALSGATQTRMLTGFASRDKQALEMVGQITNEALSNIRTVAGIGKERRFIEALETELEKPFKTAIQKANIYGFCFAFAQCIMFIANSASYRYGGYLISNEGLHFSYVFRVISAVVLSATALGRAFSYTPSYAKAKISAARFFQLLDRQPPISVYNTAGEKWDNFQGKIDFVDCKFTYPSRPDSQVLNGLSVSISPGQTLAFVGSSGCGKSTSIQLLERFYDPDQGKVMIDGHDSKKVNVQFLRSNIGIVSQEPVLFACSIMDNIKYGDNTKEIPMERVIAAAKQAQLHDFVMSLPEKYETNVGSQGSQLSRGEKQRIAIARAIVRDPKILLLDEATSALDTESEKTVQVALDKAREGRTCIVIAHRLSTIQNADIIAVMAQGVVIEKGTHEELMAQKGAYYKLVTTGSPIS
ATP-binding cassette sub-family C member 2, sequence (Q92887 whole entry): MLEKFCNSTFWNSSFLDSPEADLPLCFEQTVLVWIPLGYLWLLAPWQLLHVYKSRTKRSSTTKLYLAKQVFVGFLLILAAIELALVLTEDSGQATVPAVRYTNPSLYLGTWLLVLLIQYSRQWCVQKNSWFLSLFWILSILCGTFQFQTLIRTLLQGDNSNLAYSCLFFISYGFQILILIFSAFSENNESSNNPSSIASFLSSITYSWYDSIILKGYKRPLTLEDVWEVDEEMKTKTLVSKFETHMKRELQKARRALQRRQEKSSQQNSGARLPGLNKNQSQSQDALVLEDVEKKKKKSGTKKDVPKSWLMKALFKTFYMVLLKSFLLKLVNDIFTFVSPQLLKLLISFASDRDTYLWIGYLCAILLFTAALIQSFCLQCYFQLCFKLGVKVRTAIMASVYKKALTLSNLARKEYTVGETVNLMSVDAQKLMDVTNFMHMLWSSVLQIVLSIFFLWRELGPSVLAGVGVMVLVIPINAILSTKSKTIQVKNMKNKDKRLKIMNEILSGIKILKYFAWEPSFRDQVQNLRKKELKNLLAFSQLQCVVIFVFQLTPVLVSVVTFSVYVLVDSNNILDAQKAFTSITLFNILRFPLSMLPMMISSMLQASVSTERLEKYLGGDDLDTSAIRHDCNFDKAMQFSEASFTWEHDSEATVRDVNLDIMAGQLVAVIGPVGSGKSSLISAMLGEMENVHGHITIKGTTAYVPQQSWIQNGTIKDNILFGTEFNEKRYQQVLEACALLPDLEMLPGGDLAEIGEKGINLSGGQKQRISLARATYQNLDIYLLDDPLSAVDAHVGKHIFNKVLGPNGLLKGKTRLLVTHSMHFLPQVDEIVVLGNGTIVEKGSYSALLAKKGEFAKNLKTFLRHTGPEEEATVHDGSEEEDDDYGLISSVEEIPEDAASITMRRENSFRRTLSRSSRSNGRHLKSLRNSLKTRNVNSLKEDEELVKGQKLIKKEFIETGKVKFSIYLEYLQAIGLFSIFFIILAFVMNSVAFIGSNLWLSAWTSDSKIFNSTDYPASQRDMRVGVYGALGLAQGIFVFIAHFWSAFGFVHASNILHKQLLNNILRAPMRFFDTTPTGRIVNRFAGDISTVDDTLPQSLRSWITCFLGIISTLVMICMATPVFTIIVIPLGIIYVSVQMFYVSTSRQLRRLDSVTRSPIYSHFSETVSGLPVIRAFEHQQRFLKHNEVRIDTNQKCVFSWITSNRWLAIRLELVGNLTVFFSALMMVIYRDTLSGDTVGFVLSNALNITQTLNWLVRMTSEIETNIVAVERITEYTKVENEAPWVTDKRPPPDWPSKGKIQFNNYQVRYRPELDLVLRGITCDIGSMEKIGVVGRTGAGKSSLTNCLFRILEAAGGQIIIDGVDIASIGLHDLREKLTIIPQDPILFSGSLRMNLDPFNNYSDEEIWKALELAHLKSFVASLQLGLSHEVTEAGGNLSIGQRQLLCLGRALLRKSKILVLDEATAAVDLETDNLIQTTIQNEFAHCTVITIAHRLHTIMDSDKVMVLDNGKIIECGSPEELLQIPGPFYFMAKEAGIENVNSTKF
ATP-binding cassette sub-family C member 3, sequence (O15438 whole entry): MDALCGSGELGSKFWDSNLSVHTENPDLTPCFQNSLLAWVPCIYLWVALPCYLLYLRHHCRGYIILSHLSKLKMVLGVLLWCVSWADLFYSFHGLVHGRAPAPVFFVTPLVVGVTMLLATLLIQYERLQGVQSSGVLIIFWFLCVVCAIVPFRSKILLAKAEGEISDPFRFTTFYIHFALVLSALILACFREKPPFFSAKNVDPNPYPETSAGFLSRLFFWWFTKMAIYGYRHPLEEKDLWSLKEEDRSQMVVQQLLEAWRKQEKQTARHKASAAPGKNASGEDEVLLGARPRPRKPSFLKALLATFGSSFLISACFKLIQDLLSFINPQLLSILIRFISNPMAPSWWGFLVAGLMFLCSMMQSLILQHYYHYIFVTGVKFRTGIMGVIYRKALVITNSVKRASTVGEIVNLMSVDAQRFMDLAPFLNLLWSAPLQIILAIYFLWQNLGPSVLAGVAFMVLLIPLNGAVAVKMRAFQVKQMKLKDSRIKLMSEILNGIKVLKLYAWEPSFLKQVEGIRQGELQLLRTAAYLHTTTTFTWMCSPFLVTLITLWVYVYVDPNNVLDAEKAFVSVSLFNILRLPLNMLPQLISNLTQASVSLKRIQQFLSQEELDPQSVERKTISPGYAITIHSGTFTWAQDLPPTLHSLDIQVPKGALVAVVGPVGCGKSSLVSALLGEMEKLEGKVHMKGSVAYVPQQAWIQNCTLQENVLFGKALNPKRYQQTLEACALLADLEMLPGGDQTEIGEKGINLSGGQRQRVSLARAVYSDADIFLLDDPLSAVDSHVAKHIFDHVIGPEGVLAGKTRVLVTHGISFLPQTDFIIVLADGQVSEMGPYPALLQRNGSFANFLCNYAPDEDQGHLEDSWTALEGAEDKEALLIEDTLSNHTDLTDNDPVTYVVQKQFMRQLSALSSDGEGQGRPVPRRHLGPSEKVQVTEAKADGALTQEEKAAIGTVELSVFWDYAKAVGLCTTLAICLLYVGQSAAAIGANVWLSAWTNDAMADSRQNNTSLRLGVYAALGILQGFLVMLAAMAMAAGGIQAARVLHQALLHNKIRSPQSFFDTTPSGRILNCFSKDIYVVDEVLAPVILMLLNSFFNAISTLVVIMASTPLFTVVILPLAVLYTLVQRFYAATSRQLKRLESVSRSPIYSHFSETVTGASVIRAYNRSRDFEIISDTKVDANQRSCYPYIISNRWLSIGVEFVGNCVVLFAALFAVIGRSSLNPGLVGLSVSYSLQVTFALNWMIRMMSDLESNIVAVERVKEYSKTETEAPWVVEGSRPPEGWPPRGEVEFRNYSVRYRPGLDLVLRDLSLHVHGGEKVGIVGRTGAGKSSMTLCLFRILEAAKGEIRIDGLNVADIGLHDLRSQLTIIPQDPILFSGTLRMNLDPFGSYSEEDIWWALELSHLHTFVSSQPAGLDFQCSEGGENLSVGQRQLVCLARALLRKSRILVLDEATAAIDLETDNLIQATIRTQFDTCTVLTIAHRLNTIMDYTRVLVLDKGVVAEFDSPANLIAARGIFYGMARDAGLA

## COc1ccc(CCN2CCC(Nc3nc4ccccc4n3Cc3ccc(F)cc3)CC2)cc1 [ASTEMIZOLE]
[1]
  IC50: > 133 µM
[2]
  IC50: > 133 µM
Homo sapiens
  Activity: Toxic
[3]
  IC50: > 133 µM
[4]
  AUC at 24 h: 0.024 µM·h

## CCN(CC)CC#CCOC(=O)C(O)(c1ccccc1)C1CCCCC1 (configuration not stated) [OXYBUTYNIN]
[1]
  IC50: > 133 µM
[5]
  AUC at 24 h: 0.039 µM·h
[2]
  IC50: > 133 µM
[3]
  IC50: > 133 µM
[6]
  concentration at 24 h: 2 nM

## CCCC[C@](C)(O)C/C=C/[C@H]1[C@H](O)CC(=O)[C@@H]1CCCCCCC(=O)OC
[7]
  Ratio: 0
[1]
  IC50: > 133 µM
[8]
  AUC at 6 h: 0.001 µM·h
[2]
  IC50: 46 µM
Bile salt export pump
  IC50: 27.7 µM
[3]
  IC50: > 133 µM
[9]
  Ratio: 0.00001

## CC(O)(CS(=O)(=O)c1ccc(F)cc1)C(=O)Nc1ccc(C#N)c(C(F)(F)F)c1 (configuration not stated) [BICALUTAMIDE]
[10]
  AUC at 24 h: 502 µM·h
[11]
  Ratio: 0.263
[1]
  IC50: > 133 µM
[2]
  IC50: > 133 µM
Bile salt export pump
  IC50: 79.6 µM
[3]
  IC50: > 133 µM
[12]
  concentration at 24 h: 20900 nM

## Cc1ccccc1C(=O)Nc1ccc(C(=O)N2CCCC(O)c3cc(Cl)ccc32)c(C)c1 (configuration not stated) [TOLVAPTAN]
[13]
  AUC at 24 h: 9.49 µM·h
[14]
  concentration at 24 h: 396 nM
[1]
  IC50: > 133 µM
[2]
  IC50: > 133 µM
Bile salt export pump
  IC50: 9.99 µM
[15]
  Ratio: 0.04
[3]
  IC50: > 133 µM

## CCOC(=O)C1=C(C)NC(C)=C(C(=O)OC)C1c1cccc(Cl)c1Cl (configuration not stated) [FELODIPINE]
[16]
  AUC at 24 h: 0.107 µM·h
[1]
  IC50: > 133 µM
[2]
  IC50: > 133 µM
Bile salt export pump
  IC50: 69.7 µM
[3]
  IC50: > 133 µM
[17]
  Ratio: 0.00006
[18]
  concentration at 24 h: 4 nM

## C[C@]12C=CC(=O)N[C@@H]1CC[C@@H]1[C@@H]2CC[C@]2(C)[C@@H](C(=O)Nc3cc(C(F)(F)F)ccc3C(F)(F)F)CC[C@@H]12 [DUTASTERIDE]
[19]
  Ratio: 0.00011
[20]
  AUC at 24 h: 0.078 µM·h
[1]
  IC50: > 133 µM
[2]
  IC50: > 133 µM
Bile salt export pump
  IC50: 29.8 µM
[3]
  IC50: > 133 µM
[21]
  concentration at 24 h: 3 nM

## COC(=O)[C@H]1[C@H]2C[C@@H]3c4[nH]c5cc(OC)ccc5c4CCN3C[C@H]2C[C@@H](OC(=O)c2cc(OC)c(OC)c(OC)c2)[C@@H]1OC [RESERPINE]
[22]
  Ratio: 0.00007
[1]
  IC50: 68.4 µM
[23]
  AUC at 24 h: 0.014 µM·h
[24]
  Ratio: 0
[2]
  IC50: > 133 µM
[3]
  IC50: > 133 µM
[25]
  concentration at 24 h: 1 nM
